We go through 21 compounds from ChEMBL document CHEMBL3286118, “Synthesis and in vitro antitumor activity of novel 2-alkyl-5-methoxycarbonyl-11-methyl-6H-pyrido[4,3-b]carbazol-2-ium and 2-alkylellipticin-2-ium chloride derivatives” (Eur J Med Chem, 2014).

The term IC50 denotes the concentration that inhibits the measured activity by half.

Bounds are passed on as bounds.

This experiment in a line: Cytotoxicity against human HeLaS3 cells assessed as cell viability after 24 to 72 hrs by MTT assay. In kind it is functional, cell-based. The conditions noted are these: HeLa S3. (In general: Tetrazolium dyes change colour on reduction, which living cells bring about.)
`Cc1c2c[n+](CCCCCN)ccc2c(C)c2c1c1cc(O)ccc1n2C`: the IC50 worked out at 19.3 µM. In the case of `COC(=O)c1c2cc[n+](CCOCCN)cc2c(C)c2c1[nH]c1ccccc12` it was 41.3 µM; in that of `Cc1c2c[n+](CCOCCN)ccc2c(C)c2c1c1cc(O)ccc1n2C`, 17.9 µM. In the case of `Cc1c2cc[n+](CCOCCN)cc2c(C)c2c1[nH]c1ccccc12` it was 27.8 µM; in that of `Cc1c2cc[n+](CCOCCN)cc2c(C)c2c1[nH]c1ccc(O)cc12`, 17.7 µM; in that of `Cc1c2cc[n+](C)cc2c(C)c2c1[nH]c1ccccc12`, 2.9 µM.

Consider `CNC(=O)NCCOCC[n+]1ccc2c(C)c3[nH]c4ccccc4c3c(C)c2c1`, for which the 50% inhibitory concentration (IC50) turned out to be 75.3 µM. With `CNC(=O)NCCOCC[n+]1ccc2c(C)c3[nH]c4ccc(O)cc4c3c(C)c2c1` the figure was 29.4 µM; with `CNC(=O)NCCOCC[n+]1ccc2c(C)c3c(c(C)c2c1)c1cc(O)ccc1n3C`, 6.2 µM; with `CNC(=O)NCCCCC[n+]1ccc2c(C)c3c(c(C)c2c1)c1cc(O)ccc1n3C`, 32.5 µM. With `COC(=O)c1c2cc[n+](CCOCCNC(=O)N(C)N=O)cc2c(C)c2c1[nH]c1ccccc12` the figure was 51.9 µM. Regarding `Cc1c2cc[n+](CCOCCNC(=O)N(C)N=O)cc2c(C)c2c1[nH]c1ccc(O)cc12`, the IC50 is 60 µM. Regarding `Cc1c2c[n+](CCOCCNC(=O)N(C)N=O)ccc2c(C)c2c1c1cc(O)ccc1n2C`, the IC50 was 18.4 µM. As to `COC(=O)c1c2cc[n+](CCN)cc2c(C)c2c1[nH]c1ccccc12`, the IC50 was 5.8 µM.

As for `COC(=O)c1c2cc[n+](CCCN)cc2c(C)c2c1[nH]c1ccccc12`, the half-inhibitory concentration (IC50) is 2.5 µM.

As to `CNC(=O)NCC[n+]1ccc2c(C(=O)OC)c3[nH]c4ccccc4c3c(C)c2c1`, the IC50 worked out at 6.6 µM.

For `COC(=O)c1c2cc[n+](CCNC(=O)N(C)N=O)cc2c(C)c2c1[nH]c1ccccc12`, the IC50 worked out at 15 µM. With `CNC(=O)NCCC[n+]1ccc2c(C(=O)OC)c3[nH]c4ccccc4c3c(C)c2c1` the figure was 24 µM; with `COC(=O)c1c2cc[n+](CCCNC(=O)N(C)N=O)cc2c(C)c2c1[nH]c1ccccc12`, 1.3 µM; with `Cc1c2ccncc2c(C)c2c1[nH]c1ccccc12` [ELLIPTECINE], 2.1 µM.

For the compound `CN(N=O)C(N)=O` [N-METHYL-N-NITROSUREA], the IC50 was greater than 100 µM.
